Results: patent US11780826B2 (Amgen Inc., priority 2017, dated 2023)

System: Bovine cardiac myofibrils
Experiment: In vitro model of dose-dependent myofibril ATPase modulation (AC1.4, pyruvate kinase/lactate dehydrogenase-coupled ATPase assay at pCa25)
Format: biochemical
Conditions: concentration at which ATPase activity was 1.4-fold higher than the bottom of the dose curve, mean of a minimum of two independent tests
Outline: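 Absorbance at 340 nm tracked ATP hydrolysis through pyruvate kinase/lactate dehydrogenase coupling (0.5 mM NADH, 1.5 mM PEP). Myofibrils from detergent-homogenized bovine heart, 1 mM ATP, pH 6.80, EGTA/CaCl2 buffering. Dose-response curves fitted with a four-parameter Hill equation.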

Row | SMILES | AC1.4 [µM]
1 | N#CC1CN(S(=O)(=O)c2cccc(C(=O)N3CCC[C@@H]3C(=O)NCc3cccc(Cl)c3)c2)C1 [Example 190, N-(3-chlorobenzyl)-1-((3-((3-cyano-1-azetidinyl)sulfonyl)phenyl)carbonyl)-D-prolinamide] | 0.3569
2 | Cc1ccc(CNC(=O)[C@H]2CCCN2C(=O)[C@H]2CCCN(S(=O)(=O)N3CC(C#N)C3)C2)c(Cl)c1 [Example 191, N-(2-chloro-4-methylbenzyl)-1-(((3S)-1-((3-cyano-1-azetidinyl)sulfonyl)-3-piperidinyl)carbonyl)-D-prolinamide] | 0.3593
3 | N#C[C@H]1CCN(S(=O)(=O)N2CCC[C@H](C(=O)N3CCC[C@@H]3C(=O)NCc3ccc(C(F)(F)F)cc3)C2)C1 [Example 192, 1-(((3S)-1-(((3S)-3-cyano-1-pyrrolidinyl)sulfonyl)-3-piperidinyl)carbonyl)-N-(4-(trifluoromethyl)benzyl)-D-prolinamide] | 0.3628
4 | CS(=O)(=O)c1cccc(C(=O)N2[C@@H](C(=O)N[C@@H](c3ccc(C(F)(F)F)c(F)c3)C3COC3)C[C@H]3C[C@H]32)c1 [Example 193, (1R,3R,5R)-N-((R)-(3-fluoro-4-(trifluoromethyl)phenyl)(3-oxetanyl)methyl)-2-(3-(methylsulfonyl)benzoyl)-2-azabicyclo[3.1.0]hexane-3-carboxamide] | 0.3676
5 | NS(=O)(=O)c1cccc(C(=O)N2CCCC[C@@H]2C(=O)N[C@@H](c2cc(F)c(Cl)cc2F)C2CC2)c1 [Example 194, (2R)-N-((R)-(4-chloro-2,5-difluorophenyl)(cyclopropyl)methyl)-1-(3-sulfamoylbenzoyl)-2-piperidinecarboxamide] | 0.385
6 | CC[C@H](NC(=O)[C@H]1CCCN1C(=O)[C@H]1CCCN(S(=O)(=O)N2CC(C#N)C2)C1)c1ccc(C(F)(F)F)cc1 [Example 195, 1-(((3S)-1-((3-cyano-1-azetidinyl)sulfonyl)-3-piperidinyl)carbonyl)-N-((1S)-1-(4-(trifluoromethyl)phenyl)propyl)-D-prolinamide] | 0.3859
7 | C#CC1(O)CN(S(=O)(=O)N2CCC[C@H](C(=O)N3CCC[C@@H]3C(=O)NCc3ccc(C(F)(F)F)cc3F)C2)C1 [Example 196, 1 (((3S)-1-((3-ethynyl-3-hydroxy-1-azetidinyl)sulfonyl)-3-piperidinyl)carbonyl)-N-(2-fluoro-4-(trifluoromethyl)benzyl)-D-prolinamide] | 0.3906
8 | CS(=O)(=O)c1cccc(C(=O)N2[C@@H](C(=O)N[C@@H](c3cc(F)c(C(F)F)cc3F)C3CC3)C[C@H]3C[C@H]32)c1 [Example 197, (1R,3R,5R)-N-((R)-cyclopropyl(4-(difluoromethyl)-2,5-difluorophenyl)methyl)-2-(3-(methylsulfonyl)benzoyl)-2-azabicyclo[3.1.0]hexane-3-carboxamide] | 0.3963
9 | N#CC1CN(S(=O)(=O)N2CCC[C@H](C(=O)N3CCC[C@@H]3C(=O)N[C@@H](c3ccc(C(F)(F)F)cc3)C(F)(F)F)C2)C1 [Example 198, 1-(((3S)-1-((3-cyano-1-azetidinyl)sulfonyl)-3-piperidinyl)carbonyl)-N-((1S)-2,2,2-trifluoro-1-(4-(trifluoromethyl)phenyl)ethyl)-D-prolinamide] | 0.4034
10 | O=C(NCc1ccc(C(F)(F)F)cc1F)[C@H]1CCCN1C(=O)[C@H]1CCCN(S(=O)(=O)N2CC(O)(C3CC3)C2)C1 [Example 199, 1-(((3S)-1-((3-cyclopropyl-3-hydroxy-1-azetidinyl)sulfonyl)-3-piperidinyl)carbonyl)-N-(2-fluoro-4-(trifluoromethyl)benzyl)-D-prolinamide] | 0.4078
11 | CS(=O)(=O)c1cccc(C(=O)N2C[C@@H](F)C[C@@H]2C(=O)N[C@@H](c2cc(F)c(Cl)cc2F)C2CC2)c1 [Example 201, (4S)-N-((R)-(4-chloro-2,5-difluorophenyl)(cyclopropyl)methyl)-4-fluoro-1-(3-(methylsulfonyl)benzoyl)-D-prolinamrde] | 0.411
12 | CS(=O)(=O)c1ccnc(C(=O)N2[C@@H](C(=O)N[C@@H](c3cc(F)c(Cl)cc3F)C3CC3)C[C@H]3C[C@H]32)c1 [Example 202, (1R,3R,5R)-N-((R)-(4-chloro-2,5-difluorophenyl)(cyclopropyl)methyl)-2-((4-(methylsulfonyl)-2-pyridinyl)carbonyl)-2-azabicyclo[3.1.0]hexane-3-carboxamide] | 0.4116
13 | O=C(NCc1ccc(C(F)(F)F)cc1)[C@H]1CCCN1C(=O)[C@H]1CCCN(S(=O)(=O)N2CC(n3ccnn3)C2)C1 [Example 203, 1-(((3S)-1-((3-(1H-l,2,3-triazol-1-yl)-1-azetidinyl)sulfonyl)-3-piperidinyl)carbonyl)-N-(4-(trifluoromethyl)benzyl)-D-prolinamide] | 0.4299
14 | CC[C@H](NC(=O)[C@H]1CCCN1C(=O)c1cccc(S(=O)(=O)N2CC(C#N)C2)c1)c1ccc(C(F)(F)F)cc1F [Example 204, 1-(3-((3-cyano-1-azetidinyl)sulfonyl)benzoyl)-N-((1S)-1-(2-fluoro-4-(trifluoromethyl)phenyl)propyl)-D-prolinamide] | 0.4305
15 | C[C@@H](NC(=O)[C@H]1CCCN1C(=O)c1cccc(S(=O)(=O)N2CC(C#N)C2)c1)c1cc(F)cc(F)c1 [Example 205, 1-(3-((3-cyano-1-azetidinyl)sulfonyl)benzoyl)-N-((1R)-1-(3,5-difluorophenyl)ethyl)-D-prolinamide] | 0.4322
16 | N#CC1CN(S(=O)(=O)N2CCC[C@H](C(=O)N3CCC[C@@H]3C(=O)NCc3cccc(Cl)c3Cl)C2)C1 [Example 206, 1-(((3S)-1-((3-cyano-1-azetidinyl)sulfonyl)-3-piperidinyl)carbonyl)-N-(2,3-dichlorobenzyl)-D-prolinamide] | 0.4338
17 | CS(=O)(=O)c1cccc(C(=O)N2[C@@H](C(=O)N[C@@H](c3ccc(Cl)cc3F)C3COC3)C[C@H]3C[C@H]32)c1 [Example 207, (1R,3R,5R)-N-((R)-(4-chloro-2-fluorophenyl)(3-oxetanyl)methyl)-2-(3-(methylsulfonyl)benzoyl)-2-azabicyclo[3.1.0]hexane-3-carboxamide] | 0.4436
18 | CC(O)(c1cccc(C(=O)N2CCCC[C@@H]2C(=O)N[C@@H](c2ccc(C(F)(F)F)cc2F)C2CC2)c1)C(F)(F)F (stereo partly drawn) [Example 208, (2R)-N-((R)-cyclopropyl(2-fluoro-4-(trifluoromethyl)phenyl)methyl)-1-(3-(-1,1,1-trifluoro-2-hydroxy-2-propanyl)benzoyl)-2-piperidinecarboxamide] | 0.4457
19 | C[C@H](C(=O)N[C@H](C)c1ccc(C(F)(F)F)cc1F)N(C)C(=O)[C@H]1CCCN(S(=O)(=O)N2CC(C#N)C2)C1 [Example 209, (3S)-1-((3-cyano-1-azetidinyl)sulfonyl)-N-((2R)-1-(((1R)-1-(2-fluoro-4-(trifluoromethyl)phenyl)ethyl)amino)-1-oxo-2-propanyl)-N-methyl-3-piperidinecarboxamide] | 0.4473
20 | O=C(NCc1ccc(C(F)(F)F)cc1)[C@H]1CCCN1C(=O)[C@H]1CCCN(S(=O)(=O)N2CC(OCc3ccc(Cl)cc3)C2)C1 [Example 210, 1-(((3S)-1-((3-((4-chlorobenzyl)oxy)-1-azetidinyl)sulfonyl)-3-piperidinyl)carbonyl)-N-(4-(trifluoromethyl)benzyl)-D-prolinamide] | 0.4487
